Reference: publication PMC11154709, “4S-fluorination of ProB29 in insulin lispro slows fibril formation” (The Journal of Biological Chemistry, 2024)

Columns and labels:
[1] = target: reversible monomer-dimer equilibrium; details: read-out: Kd (monomer-dimer), previously reported; cited from earlier work
From the text: The secondary structure of each insulin lispro variant was probed by circular dichroism spectroscopy. […] All lispro samples were further analyzed by analytical ultracentrifuga ...

[2] = test system: diabetic mice; assay: Reduction of blood glucose in diabetic mice; assay type: in vivo; details: 5 to 10% of the standard injection (3.5 and 1.75 mg kg-1 as printed in SI), commercial Humalog, subcutaneous, STZ-diabetic male NODscid mice 15-18 week old; mean ± SD of 4 biological replicates (Fig. S2)
Procedure: To verify bioactivity, lispro variants were injected subcutaneously into diabetic mice, and blood glucose was monitored over 2.5 h. Mouse models allow determination of activity but not time to onset of action ([27]). […] As expected, all lispro variants retained activity (Fig. 2A).
Figure 2 Biological activity and CD spectroscopy of lispro variants.A, lispros were injected subcutaneously into diabetic mice, and blood glucose was measured over time after injection. The data presented here represent the mean ± SD of 3 to 6 biological replicates. B–E, far-UV circular dichroism spectra (60 μM lispro in […] phosphate buffer, pH 8.0). […] 4R-F, 4R-fluoroproline; 4S-F, 4S-fluoroproline.
Experiments were conducted according to procedures approved by the Institutional Animal Care and Use Committee at the City of Hope. Adult (8–12 week old) male NODscid mice (Jackson Laboratory; stock # 001303) were injected intraperitoneally for three consecutive days with freshly prepared streptozotocin (45 mg kg^−1 body weight, suspended in 100 mM sodium citrate buffer, pH 4.5); diabetes was confirmed by the detection of high glucose levels (200–600 mg dL^−1) as measured by a glucomonitor (Freestyle, Abbott Diabetes Care). […] Blood glucose was measured from blood sampled from the lateral tail vein. […]
into the matrix solution (α -cyanohydroxycinnamic acid in 50% ACN, 0.1% TFA) and analyzed by […]

insulin lispro: fast-acting insulin with inversion of the residues ProB28 and LysB29; Humalog, Eli Lilly [reference compound]
Kd [1]: 1100 µM | reduction of blood glucose at lower lispro doses [2]: did not similarly reduce blood glucose in diabetic mice
